These results are taken from ChEMBL document CHEMBL1201862, “PubChem BioAssay data set” (2004).

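Each compound was tested at five concentrations against cells in 96-well plates for 48 hours. GI50 is the concentration that inhibits growth by half.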 Active and inactive are the calls of the source. Cut-off read from the data, not from the text of the source: active = GI50 up to about 1.1 µM and inactive = higher.

Among the test systems are EKVX; HCC 2998; HCT-15; HL-60; HT-29; Hs-578T; M14; MDA-MB-435; MDA-N; Malme-3M; OVCAR-3; OVCAR-5; OVCAR-8; SF-539; SK-MEL-28; SK-MEL-2; SN12C; SNB-19; TK-10; UACC-62.
What all share (experiment): growth of human tumour cells (NCI), 48 h

On to `O=C1Cc2c(-c3ccccc3)cc(-c3cccc(Cl)c3)nc2-c2ccccc2N1`, for which the GI50 in the test with EKVX is 2.29 µM (inactive); in the test on HCC 2998, 2.09 µM (inactive); in the test with HCT-15, 3.42 µM; in the test with HL-60, 38.7 µM (inactive); in the test on HT-29, 1.73 µM (inactive); with Hs-578T, 2.09 µM (inactive). The GI50 is 8.09 µM (inactive) with M14; 8.91 µM (inactive) in the test on MDA-MB-435; 6.82 µM (inactive) with MDA-N; 3.82 µM (inactive) in the test with Malme-3M; 2.1 µM (inactive) in the test on OVCAR-3; 6.19 µM (inactive) in the test on OVCAR-5. Also, the GI50 in the test on OVCAR-8 is 1.61 µM (inactive); in the test on SF-539 it was 6.34 µM (inactive); in the test with SK-MEL-28 it was 3.9 µM (inactive); with SK-MEL-2, 8 µM (inactive); in the test on SN12C, 1.26 µM (inactive); in the test with SNB-19, 1.64 µM (inactive). Further, the GI50 with TK-10 was 1.49 µM (inactive); in the test on UACC-62, 3.03 µM (inactive).
For `COc1cc(C)cc2c1C(=O)C(NC(C)=O)=CC2=O`, the GI50 is > 100 µM (inactive) in the test with EKVX; > 100 µM (inactive) with HCC 2998; greater than 100 µM in the test on HCT-15; 23.3 µM (inactive) in the test on HL-60; > 100 µM (inactive) in the test on HT-29; 55.1 µM (inactive) in the test on Hs-578T. Moreover, the GI50 in the test with M14 is > 100 µM (inactive); in the test on MDA-MB-435, 17.3 µM (inactive); with MDA-N it was 18.1 µM (inactive); in the test on Malme-3M it was > 100 µM (inactive); in the test with OVCAR-3, > 100 µM (inactive); in the test on OVCAR-5 it was > 100 µM (inactive). Besides, the GI50 in the test on OVCAR-8, with SF-539, with SK-MEL-28, in the test on SK-MEL-2, in the test with SN12C and with SNB-19 was > 100 µM (inactive) each time. Besides, the GI50 in the test with TK-10 is > 100 µM (inactive); in the test with UACC-62 it was 58.7 µM (inactive).
As to `COC(=O)c1ccc(NCC2=C(Br)C(=O)C=CC2=O)cc1Cl`, the GI50 is 14.1 µM (inactive) in the test with EKVX; 42.6 µM (inactive) in the test with HCC 2998; 15.8 µM in the test with HCT-15; 3.68 µM (inactive) in the test with HL-60; 17.7 µM (inactive) in the test on HT-29; 21.9 µM (inactive) in the test on Hs-578T. Also, the GI50 in the test on M14 was 18.2 µM (inactive); with MDA-MB-435, 19.2 µM (inactive); with MDA-N it was 16.9 µM (inactive); with Malme-3M it was 15.2 µM (inactive); in the test with OVCAR-3 it was 13.9 µM (inactive); with OVCAR-5, 21.8 µM (inactive). In addition, the GI50 is 19.3 µM (inactive) with OVCAR-8; 16.8 µM (inactive) with SF-539; 18.8 µM (inactive) in the test with SK-MEL-28; 20.2 µM (inactive) in the test on SK-MEL-2; 16.5 µM (inactive) with SN12C; > 100 µM (inactive) in the test on SNB-19. Also, the results for the GI50 in the test on TK-10 and with UACC-62 were 16.4 µM (inactive) and 18.8 µM (inactive), respectively.
As for `COc1cc(CCCl)c(CC2=NCCc3cc(OC)c(OC)cc32)cc1OC`, the GI50 in the test with EKVX was 88.9 µM (inactive); in the test with HCC 2998, 61 µM (inactive); with HL-60, 4.41 µM (inactive); in the test on HT-29, 32.5 µM (inactive); with Hs-578T, 14.9 µM (inactive); with M14 it was 50.1 µM (inactive). In addition, the GI50 in the test on MDA-MB-435 was 89.9 µM (inactive); in the test with MDA-N, 70.1 µM (inactive); with OVCAR-3, > 100 µM (inactive); in the test with OVCAR-5 it was > 100 µM (inactive); in the test on OVCAR-8, > 100 µM (inactive); in the test on SF-539, 4.61 µM (inactive). Further, the GI50 in the test on SK-MEL-28 is > 100 µM (inactive); in the test with SK-MEL-2 it was > 100 µM (inactive); with SN12C, 80.9 µM (inactive); with SNB-19, > 100 µM (inactive); in the test with TK-10, 30.2 µM (inactive); in the test with UACC-62, 43.3 µM (inactive).
Turning to `O=C1C(Cl)=C(N2CCC[C@H]2CO)C(=O)c2c(O)ccc(O)c21`, the GI50 with EKVX was 9.16 µM (inactive); in the test with HCC 2998 it was 4.55 µM (inactive); in the test on HCT-15 it was 1.95 µM; in the test with HL-60, 0.0724 µM (active); in the test on HT-29 it was 4.18 µM (inactive); in the test on Hs-578T, 2.26 µM (inactive). Besides, the GI50 with M14 is 1.95 µM (inactive); in the test on MDA-MB-435, 1.82 µM (inactive); in the test with MDA-N, 1.86 µM (inactive); in the test with Malme-3M, 1.7 µM (inactive); in the test with OVCAR-3, 2.56 µM (inactive); in the test on OVCAR-5, > 10 µM (inactive). In addition, the GI50 was 2.88 µM (inactive) in the test on OVCAR-8; > 10 µM (inactive) in the test on SF-539; 1.55 µM (inactive) in the test on SK-MEL-28; 2.53 µM (inactive) in the test with SK-MEL-2; 1.71 µM (inactive) in the test with SN12C; > 10 µM (inactive) in the test with SNB-19. For the same molecule, the GI50 in the test on TK-10 was 2.54 µM (inactive); in the test with UACC-62, 2.04 µM (inactive).
For the molecule `O=c1ccn(CC2(CO)CC(Cc3ccccc3)C2)c(=O)[nH]1` (centres undefined), the GI50 was > 100 µM (inactive) with EKVX; > 100 µM (inactive) with HCC 2998; greater than 100 µM with HCT-15; > 100 µM (inactive) in the test with HL-60; > 100 µM (inactive) in the test on HT-29; > 100 µM (inactive) in the test on Hs-578T. Further, the GI50 in the test on MDA-MB-435, in the test with MDA-N, with Malme-3M, in the test on OVCAR-3, with OVCAR-5 and with OVCAR-8 was > 100 µM (inactive) throughout. Moreover, the GI50 in the test on SF-539, in the test on SK-MEL-28, with SK-MEL-2, in the test with SN12C, in the test on TK-10 and with UACC-62 was > 100 µM (inactive) throughout.
Turning to `Oc1ccccc1-c1nn2c(CCCCCCCCc3nnc4sc(-c5ccccc5O)nn34)nnc2s1`, the GI50 is 22.4 µM (inactive) in the test on EKVX; 27.2 µM (inactive) in the test with HCC 2998; 7.6 µM with HCT-15; 1.03 µM (active) with HL-60; 11.1 µM (inactive) in the test on HT-29; 8.57 µM (inactive) in the test with Hs-578T. Besides, the GI50 with M14 is 11.2 µM (inactive); with MDA-MB-435, 5.18 µM (inactive); with MDA-N, 4.58 µM (inactive); in the test with Malme-3M, 35 µM (inactive); with OVCAR-3, 14.4 µM (inactive); in the test on OVCAR-5, 6.27 µM (inactive). The GI50 in the test with OVCAR-8 is 18.7 µM (inactive); in the test with SF-539, 8.53 µM (inactive); with SK-MEL-28, 24.6 µM (inactive); with SK-MEL-2, 15.9 µM (inactive); in the test with SN12C, 19.5 µM (inactive); in the test with SNB-19 it was 23.7 µM (inactive). The GI50 was 37.2 µM (inactive) with TK-10 and 7.06 µM (inactive) in the test on UACC-62.
On to `C=C1OC(=O)[C@]2([C@@H](/C=C/C)C=CC(=O)[C@H]2O)[C@@H]1O`, for which the GI50 in the test with EKVX was > 100 µM (inactive); in the test on HCC 2998 it was > 100 µM (inactive); in the test on HCT-15, greater than 100 µM; with HL-60 it was > 100 µM (inactive); in the test on HT-29 it was > 100 µM (inactive); in the test with Hs-578T, > 100 µM (inactive). Also, the GI50 with M14, with MDA-MB-435, in the test on MDA-N, with Malme-3M, with OVCAR-3 and in the test on OVCAR-5 was > 100 µM (inactive) throughout. The GI50 with OVCAR-8, in the test on SF-539, in the test with SK-MEL-28, in the test with SK-MEL-2, in the test on SN12C and in the test on SNB-19 was > 100 µM (inactive) each time. Further, the GI50 with TK-10 and in the test on UACC-62 was > 100 µM (inactive) each time.
On to `COC(=O)C1=C(O)C(C(=O)OC)[C@]2(O)[C@@H](C(=O)OC)[C@H]1C[C@@H](c1ccccc1)[C@@H]2C(=O)OC` (some centres undefined), for which the GI50 with EKVX is 17.5 µM (inactive); in the test on HCC 2998 it was 14.2 µM (inactive); in the test on HCT-15 it was 13.1 µM; with HL-60, 19.6 µM (inactive); in the test on HT-29, 16.3 µM (inactive); in the test on Hs-578T it was 17.2 µM (inactive). Moreover, the GI50 was 10.8 µM (inactive) in the test with M14; 7.71 µM (inactive) with MDA-MB-435; 5.01 µM (inactive) with MDA-N; 18.2 µM (inactive) in the test on Malme-3M; 13.8 µM (inactive) in the test with OVCAR-3; 16 µM (inactive) in the test with OVCAR-5. Besides, the GI50 was 12.6 µM (inactive) in the test with SF-539; 20.9 µM (inactive) in the test with SK-MEL-28; 13.9 µM (inactive) with SK-MEL-2; 15.7 µM (inactive) in the test on SN12C; 24.3 µM (inactive) in the test with SNB-19; 23.7 µM (inactive) in the test on TK-10. Besides, the GI50 in the test with UACC-62 was 11.9 µM (inactive).
For the molecule `CCOC(=O)C[C@@H]1C2(C=C[C@@]13CO3)OCC(C)(C)CO2`, the GI50 in the test with EKVX is > 100 µM (inactive); in the test with HCC 2998 it was > 100 µM (inactive); in the test on HCT-15, greater than 100 µM; with HL-60 it was > 100 µM (inactive); with HT-29, > 100 µM (inactive); in the test on Hs-578T, > 100 µM (inactive). The GI50 in the test on M14, with MDA-MB-435, with MDA-N, with Malme-3M, in the test on OVCAR-3 and with OVCAR-5 was > 100 µM (inactive) throughout. For the same molecule, the GI50 in the test on OVCAR-8, in the test with SF-539, with SK-MEL-28, with SK-MEL-2, in the test on SN12C and in the test with TK-10 was > 100 µM (inactive) throughout. The GI50 with UACC-62 was > 100 µM (inactive).
